This is an account of results in patent US20250099455A1, “TREATMENT FOR CONGESTIVE HEART FAILURE” (FibroGen, Inc., priority 2022, published 2025).

SMILES strings stand for the structures.

This assay relates to myocardial ischemia-induced heart failure (HFrEF). Put plainly: Rat model of ischemic HFrEF, Formula I and empagliflozin alone and in combination. In kind it is in vivo. As for the experimental part:
• Male Sprague Dawley rats • Ligation of left coronary artery for 30 minutes followed by reperfusion • Post-ligation recovery for 28 days • Cardiac function 28 days after ischemia-reperfusion using a Millar pressure-volume catheter inserted in the left ventricle via the carotid artery • Record pressure-volume loops over several cardiac cycles and derived cardiac function parameters A) Rat Model of Ischemic Heart Failure with Reduced Ejection Fraction (HFrEF)

Turning to `OC[C@H]1O[C@@H](c2ccc(Cl)c(Cc3ccc(O[C@H]4CCOC4)cc3)c2)[C@H](O)[C@@H](O)[C@@H]1O` [empagliflozin, reference compound], the “improvement in ejection fraction” value was around 30% and the “improvement in end systolic volume” value was around 30%.
